# Columns and labels:
# [1] = biological target: T1, FLT3(ITD, D835V) (Homo sapiens, UniProt P36888, D835V, form not given); type: binding
# T1 construct: fused on or other part: DNA tag for the qPCR read-out (the KINOMEscan format)
# T1 sequence (P36888 1-993 D835V): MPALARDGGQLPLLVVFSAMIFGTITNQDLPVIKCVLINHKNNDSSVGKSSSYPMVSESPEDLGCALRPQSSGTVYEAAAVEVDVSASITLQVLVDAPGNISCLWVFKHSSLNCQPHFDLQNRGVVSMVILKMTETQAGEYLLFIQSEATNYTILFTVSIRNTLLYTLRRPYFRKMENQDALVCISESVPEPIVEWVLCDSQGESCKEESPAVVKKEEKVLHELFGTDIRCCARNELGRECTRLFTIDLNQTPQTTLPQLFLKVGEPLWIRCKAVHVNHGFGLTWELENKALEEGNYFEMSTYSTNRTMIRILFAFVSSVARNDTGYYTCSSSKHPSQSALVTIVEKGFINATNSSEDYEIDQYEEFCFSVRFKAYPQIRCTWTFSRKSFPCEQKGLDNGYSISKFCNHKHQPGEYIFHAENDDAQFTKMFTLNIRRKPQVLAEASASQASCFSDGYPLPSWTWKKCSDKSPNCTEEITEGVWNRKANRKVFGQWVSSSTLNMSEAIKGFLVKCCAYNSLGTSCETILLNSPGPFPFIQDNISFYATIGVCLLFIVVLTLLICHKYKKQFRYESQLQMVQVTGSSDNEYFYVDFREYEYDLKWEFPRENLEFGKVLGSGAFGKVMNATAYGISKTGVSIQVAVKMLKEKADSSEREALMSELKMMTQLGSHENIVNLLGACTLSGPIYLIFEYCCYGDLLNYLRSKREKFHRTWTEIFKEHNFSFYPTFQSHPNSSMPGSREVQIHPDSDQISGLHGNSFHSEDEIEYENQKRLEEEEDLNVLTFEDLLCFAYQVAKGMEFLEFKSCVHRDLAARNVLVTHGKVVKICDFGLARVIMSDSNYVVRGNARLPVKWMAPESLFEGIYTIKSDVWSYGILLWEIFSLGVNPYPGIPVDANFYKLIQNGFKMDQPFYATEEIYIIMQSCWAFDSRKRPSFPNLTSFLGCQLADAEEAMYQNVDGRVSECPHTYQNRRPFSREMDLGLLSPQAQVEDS
# Description: (§1) The assay was carried out using KINOMEscan™ technology. The assay compounds were stored in 100% DMSO. The assay was carried out by means of 3-fold dilution and 11-point fitting. All compounds used for Kd determination were dispersed by ultrasound, then directly diluted and tested. All reactions were carried out in a 384-well polypropylene plate. Each portion has a final volume of 0.02 ml. The plate was incubated with shaking at room temperature for 1 hour, and then processed. The kinase concentration in the eluent was finally determined by qPCR method. Kd was obtained by fitting.
# [2] = biological target: T2, FLT3(D835Y) (Homo sapiens, UniProt P36888, D835Y); type: binding
# T2 sequence (P36888 27-993 D835Y): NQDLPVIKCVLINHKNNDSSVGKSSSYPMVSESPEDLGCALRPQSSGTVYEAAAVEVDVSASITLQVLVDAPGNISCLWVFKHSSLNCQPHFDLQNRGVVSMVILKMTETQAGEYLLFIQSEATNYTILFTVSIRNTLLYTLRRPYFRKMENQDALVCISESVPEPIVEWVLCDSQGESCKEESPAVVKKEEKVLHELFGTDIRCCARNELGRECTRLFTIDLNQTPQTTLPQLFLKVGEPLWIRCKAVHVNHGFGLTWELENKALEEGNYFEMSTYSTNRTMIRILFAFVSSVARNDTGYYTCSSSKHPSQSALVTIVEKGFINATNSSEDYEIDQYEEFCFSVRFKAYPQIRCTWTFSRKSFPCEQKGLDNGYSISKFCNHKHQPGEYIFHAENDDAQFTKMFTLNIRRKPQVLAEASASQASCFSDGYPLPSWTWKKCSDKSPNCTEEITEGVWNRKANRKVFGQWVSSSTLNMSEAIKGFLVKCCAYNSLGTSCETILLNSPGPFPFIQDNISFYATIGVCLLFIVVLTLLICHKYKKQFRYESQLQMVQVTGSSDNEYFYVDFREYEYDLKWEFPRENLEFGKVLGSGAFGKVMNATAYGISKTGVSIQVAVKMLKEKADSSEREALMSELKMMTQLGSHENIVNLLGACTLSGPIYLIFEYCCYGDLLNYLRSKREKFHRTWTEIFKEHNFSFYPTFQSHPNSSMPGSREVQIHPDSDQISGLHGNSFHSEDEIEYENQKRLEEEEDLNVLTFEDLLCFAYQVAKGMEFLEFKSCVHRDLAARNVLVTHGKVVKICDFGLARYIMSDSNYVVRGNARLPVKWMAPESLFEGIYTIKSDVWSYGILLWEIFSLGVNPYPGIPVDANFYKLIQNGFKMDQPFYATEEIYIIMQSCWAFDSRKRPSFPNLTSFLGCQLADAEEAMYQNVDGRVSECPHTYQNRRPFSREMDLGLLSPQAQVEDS
# Description: as §1
smiles,measurement,setting,value
CCc1nc(C(N)=O)c(Nc2ccc(N3CCC4(CCN(C)CC4)CC3)c(C)c2)nc1NC1CCOCC1.O=C(O)C(F)(F)F,Kd,[1],200 pM
same,Kd,[2],1400 pM

# Source: US20230141887A1, “CRYSTAL FORM OF DIAZASPIROPYRAN COMPOUND” (MEDSHINE DISCOVERY INC., priority 2020, published 2023)
